Positions of bridges follow the written chain, without caps; N, C: chain ends. No end group written: not given here. *: point of attachment. FITC = O=C1OC2(c3ccc(O)cc3Oc3cc(O)ccc32)c2ccc(NC(=S)*)cc21
Assays:
[1] = system: BBN-induced bladder tumor; assay: In vivo micro PET imaging after intravenous injection of radiolabeled peptides; design: species or system rat; conditions: 14 hours after intravenous injection; tumor-bearing F344 rats; 380 μCi peptide 1, 313 μCi control; FIG. 8
Experimental: For radioiodination, each of CSNRDARRC peptide (SEQ ID NO: 1) and CDASRRNRC control peptide (SEQ ID NO: 10) was added with a tyrosine residue at the N-terminus during synthesis. […] The synthetic peptide was labeled with [131I]NaI by using Iodo-bead (Pierce Biochemical Co., Rockford, Ill.). The bead was washed with phosphate-buffered saline (PBS), pH 7.2 and dried on filter paper for 5 min. The washed bead was added to a solution of [131I]NaI (100 MBq) in PBS. After shaking at RT for 5 min, the peptide solution (14 mg in 20 mL distilled water) was added to the [131I]NaI solution containing Iodo-bead. [131I]NaI (T1/2=[…]) was purchased from Korea Institute of Radiology and Science (KIRAMS; Seoul, Korea). The reaction was allowed to proceed for 15 min at RT by gentle shaking and then stopped by the removal of the bead out of the reaction tube. The 131I-incorporation yield measured by radio-TLC was 47% (silica, 10% ammonium acetate:methanol=30:70). […] The radiochemical purity of final solution was measured to be over 81.2%. […]
In contrast, uptake of the control peptide (313 μCi) was minimal (FIG. 8 D-F). These findings indicate that the radioactivity shown in rat bladder is not a non-specific one from urinary excretion of the radiolabeled peptides but a specific one from the uptake of the peptide by bladder tumor tissues.

[2] = system: cells separated from the urine of a patient suffering from bladder tumor; assay: Binding of FITC-peptide to cells collected from urine (fluorescence microscopy); assay type: cell-based, human; conditions: 4° C., 1 hour; FIG. 7
Experimental: FIG. 7 is a set of fluorescence microscopic photographs showing the binding specificity of the target peptide having FITC attached thereto to cells separated from the urine of a patient suffering from bladder tumor, wherein the green fluorescence represents the peptide according to the present invention, and the blue fluorescence represents the nucleus stained with DAPI;
Urine of a patient that was in the hospital for surgical operation on the bladder tumor was centrifuged with 1500 rpm at 4° C. for 10 minutes to collect cells. As a control, bladder cells, collected from the urine of a normal human in the same manner as described above, were used. Next, the collected cells were allowed to react with the FITC-peptide 1 described in Example <2-2> and the control peptide (SEQ ID NO: 10) at 4° C. for 1 hour. After staining the cells with DAPI, the cells were transferred onto a slide and observed with a fluorescence microscope. Meanwhile, the cells were stained with the PAP staining method (Papanicolau and Marshall, Science 101:519, 1945), currently used as a method for the diagnosis of bladder tumor, to observe the presence of tumor cells.

[3] = system: human bladder tumor tissue; assay: Binding of FITC-peptide to frozen tissue sections (fluorescence microscopy); conditions: 10 μM peptide, 4° C., 1 hour, FIG. 4
Experimental: FIG. 4 is a set of photographs showing the binding specificity to the frozen section of human bladder tumor cells of the peptide according to the present invention having FITC attached thereto, wherein the green fluorescence represents the peptide according to the present invention, and the blue fluorescence represents the nucleus stained with DAPI;
Next, 10 μM of the peptide, FITC-CSNRDARRC, was allowed to react with the tissues at 4° C. for 1 hour. As a control, a peptide (SEQ ID NO: 10; CDASRRNRC), which had the same number of amino acids as the peptide according to the present invention but included a randomly modified amino acid sequence between both terminal cystein residues, was used. After the reaction of each peptide, a mounting solution (molecular Probe) containing a nucleus staining reagent, DAPI (4′,6-diamidino-2-phenylindole), was treated on the surface of the slide according to the method known to one skilled in the art. Then, the slide was observed by using a fluorescence microscope.

[4] = system: bladder tumor cells separated from the human bladder tissue; assay: Binding of phage clones to bladder tumor cells and normal bladder cells from patient tissue (phage titer); assay type: cell-based; conditions: phage clones of Example 1
Experimental: FIG. 3 is a graph showing the binding specificity of six positive phage clones to the bladder tumor cells separated from the human bladder tissue and to the normal bladder cells;
Bladder tumor cells were separated from fresh bladder tumor tissue obtained from six patients with a bladder tumor by transurethral resection of bladder tumor, according to a known method. The cells were measured for the specific binding of the six individual phage clones (SEQ ID NO: 1 to SEQ ID NO: 6) described in Example 1 to the tumor cells and compared their binding to that of the normal cells. First, bladder tumor tissue and normal bladder tissue were pulverized finely to provide cell suspensions, and the six phages (5×10^9 pfu) were allowed react with the cells at 4° C. for 2 hours. A non-recombinant phage, T7 415-1b phage, was used as a control phage. Next, tumor cells and the normal epithelial cells were separated from the cell suspensions formed from the tumor tissue and the normal tissue by using magnetic beads coated with epithelial cell antibodies, in the same manner as described in Example <1-2>. Then, phages were detected from the cells and measured for the titer of phages, in the same manner as described in Example <1-2>.

bladder tumor cells = assay: In vivo targeting after tail vein injection (BBN-induced bladder tumor); design: species or system rat; conditions: final 50 μM in blood
From the text: FIG. 6 is a set of photographs showing the in vivo targeting capability of the peptide according to the present invention, after injecting the peptide having FITC attached thereto into the tail venous vessel of a mouse in which a bladder tumor is induced, wherein the green fluorescence represents the peptide according to the present invention, and the red fluorescence represents an epithelial cell stained with cytokeratin;
(§1) First, 4 week-aged F344 rats (n=10) (Hyochang Science) were fed with water containing 0.05% of N-butyl-N-4-hydroxybutylnitrosoamine (BBN) for 8 weeks to induce a bladder tumor.
(§2) The FITC-peptide 1 was injected into the mouse, in which a bladder tumor induced, and into the normal mouse via the tail venous to a final concentration of 50 μM in the blood, followed by circulation for 2 hours. Additionally, to determine whether the peptide according to the present invention specifically targets the bladder tumor in vivo, a malignant melanoma was induced in a mouse (Hyochang Science), and the peptide according to the present invention was injected into the mouse in the same manner as described above. Then, the bladder was removed from each mouse to prepare a frozen section, which, in turn, was stained by H&E staining or cytokeratin staining. Each section was observed by using a fluorescence microscope.

[5] = system: malignant melanoma tissue; assay: In vivo targeting after tail vein injection in mouse with induced malignant melanoma; conditions: final 50 μM in blood, 2 hours
Experimental: k: microscopic photograph of malignant melanoma of mouse injected with the peptide according to the present invention and stained with H & E; and
l: fluorescence microscopic photograph of cancer tissue of mouse injected with the peptide according to the present invention and stained with DAPI; and
as §2

bladder tumor tissue = assay: In vivo targeting after injection into the bladder via the urethra (BBN-induced bladder tumor); design: species or system rat; conditions: 50 μM injected into bladder via urethra, 30 minutes, FIG. 5
From the text: FIG. 5 is a set of photographs showing the binding specificity to bladder tumor tissue of the peptide according to the present invention having FITC attached thereto, after injecting the peptide into the mouse bladder in which a bladder tumor is induced, wherein the green fluorescence represents the peptide according to the present invention, and the red fluorescence represents an epithelial cell stained with cytokeratin;
as §1
50 μM of FITC-CSNRDARRC peptide described in Example <2-2> was injected into the bladder of each of the mouse, in which a bladder tumor was induced, and a normal mouse via the urethra, followed by reaction for 30 minutes. Then, the bladder was removed from each mouse and a frozen section was provided. The frozen section was stained by H&E staining according to a method known to one skilled in the art. […] Then, 1:200 dilution of a secondary antibody, to which a red fluorescence material (Alexa red) was bonded, was allowed to react with the cells at room temperature for 1 hour, followed by treatment with a mounting solution containing DAPI. Next, the cells were observed by using a fluorescence microscope.

Substance | uptake in bladder on micro PET images [1] | fluorescence/binding in urine cells of the patient suffering from bladder tumor [2] | binding to bladder tumor tissue [3] | binding capability among the six phage clones [4] | detection of peptide in lung tissue of a normal mouse (bladder tumor cells; 2 hours) | detection of peptide in normal bladder cells (bladder tumor cells; 2 hours, normal animal) | targeting of bladder tumor cells after injection into the blood (bladder tumor cells; circulation 2 hours, FIG. 6) | detection of peptide in malignant melanoma tissue [5] | fluorescence in control cells (urine of a normal human) [2] | fluorescence in epithelial cells at the site where a bladder tumor was induced (bladder tumor tissue) | fluorescence in epithelial cells covering the normal bladder (bladder tumor tissue; normal animal)
CDASRRNRC (YCDASRRNRC; disulfide 2-10; numbers in words are those of the source; also: 124I radiolabel) [control peptide, radioiodinated with added N-terminal tyrosine for PET, reference compound] | minimal | could not be bonded | substantially showed no binding |  |  |  |  |  |  |  | 
CSNRDARRC (disulfide 1-9; not fully specified (N-terminus)) [peptide 1] |  |  |  | highest binding capability |  |  |  |  |  |  | 
FITC-CSNRDARRC ({FITC}-CSNRDARRC; disulfide 1-9) [FITC-peptide 1, peptide 1 with FITC (fluorescein isothiocyanate) linked to its amino terminal] |  | green fluorescence was observed | bonded specifically |  | not detected | not detected | targets the bladder tumor cells | not detected | fluorescence was not detected | green fluorescence was observed | no fluorescence was observed
